# Test results: patent publication US11053219B2, “Substituted pyridines as TYK2 inhibitors” (FronThera U.S. Pharmaceuticals LLC, priority 2018, dated 2021)
# How the values were obtained:
# [1] = biological target: TYK2 (JH2 domain) (Homo sapiens (Human), UniProt P29597); assay: TYK2 JH2 domain binding assay (DiscoverX KINOMEscan); conditions: 11-point 3-fold dilution, duplicate
# [2] = system: INFα induced pSTAT5 in human PBMC; assay: INFα induced pSTAT5 in human PBMC; format: cell-based; conditions: human PBMC, INFα 5000 units/ml; read-out: p-STAT5 IC50
# [3] = biological target: JAK1 (JH2 domain) (Homo sapiens (Human), UniProt P23458); assay: JAK1 JH2 domain binding assay (KINOMEscan); conditions: KINOMEscan; read-out: JAK1 (JH2 domain) binding Kd
# Sequence of JAK1 (JH2 domain) (P23458 583-855): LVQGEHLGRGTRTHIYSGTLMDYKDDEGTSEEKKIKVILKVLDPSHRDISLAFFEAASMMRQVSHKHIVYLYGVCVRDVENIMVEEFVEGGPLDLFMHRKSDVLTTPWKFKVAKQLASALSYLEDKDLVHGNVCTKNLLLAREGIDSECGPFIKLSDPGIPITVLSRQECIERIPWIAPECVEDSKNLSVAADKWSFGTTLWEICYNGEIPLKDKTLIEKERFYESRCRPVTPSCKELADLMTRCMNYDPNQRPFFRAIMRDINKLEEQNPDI
# Experimental: (§5) The assay is performed by combining three components: DNA-tagged kinase; immobilized ligand; and a test compound. The ability of the test compound to compete with the immobilized ligand is measured via quantitative PCR of the DNA tag.
# (§6) The liganded beads were blocked with excess biotin and washed with blocking buffer (SeaBlock (Pierce), 1% BSA, 0.05% Tween 20, 1 mM DTT) to remove unbound ligand and to reduce non-specific binding. […] Test compounds were prepared as 111× stocks in 100% DMSO. All test compounds were shipped to DiscoverX in DMSO with concentration of 10 mM. Kds were determined using an 11-point 3-fold compound dilution series with three DMSO control points. Each compound was tested in duplicate. […] The compounds were then diluted directly into the assays such that the final concentration of DMSO was 0.9%. All reactions performed in polypropylene 384-well plate. Each was a final volume of 0.02 ml. […] The kinase concentration in the eluates was measured by qPCR.
# (§7) The amount of kinase measured by qPCR (Signal; y-axis) is plotted against the corresponding compound concentration in nM in log 10 scale (x-axis). Binding constants (Kds) were calculated with a standard dose-response curve using the Hill equation:
# (§8) Similar to the method for TYK2 JH2 binding described above, JAK1 JH2 and JAK2 JH1 domain binding assay was performed using DiscoverX's KINOMEscan™, but with change of kinase domain.
# [4] = biological target: JAK2 (JH1 domain) (Homo sapiens (Human), UniProt O60674); assay: JAK2 JH1 domain binding assay (KINOMEscan)
# Sequence of JAK2 (JH1 domain) (O60674 849-1124): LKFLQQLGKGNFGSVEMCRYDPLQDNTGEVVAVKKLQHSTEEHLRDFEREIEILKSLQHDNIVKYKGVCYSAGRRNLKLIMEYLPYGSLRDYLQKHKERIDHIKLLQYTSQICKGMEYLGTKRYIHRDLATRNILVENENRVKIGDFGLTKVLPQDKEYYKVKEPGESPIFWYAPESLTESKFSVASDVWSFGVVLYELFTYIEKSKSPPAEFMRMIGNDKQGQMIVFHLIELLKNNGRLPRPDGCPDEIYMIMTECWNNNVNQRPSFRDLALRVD
# Experimental: as §5, §6, §7, §8
# [5] = system: IL-2-induced pSTAT5 in human PBMC; assay: IL-2-induced pSTAT5 in human PBMC; format: cell-based; conditions: IL-2 20 ng/ml
# Experimental: (§1) Fresh Human PBMCs were resuspended in RPMI 1640 medium with 10% FBS. Cells were seeded in a round bottom 96-well plate at the concentration of 200,000 cells/well. A 10-point dilution series of test compound (top dose 10 uM, 1:5 dilution) was added to the well using the liquid dispenser (Tecan D300e) and incubated for 1 hour at 37 C. Then human IL-12 recombinant protein (R&D Systems) was added to the well at the final concentration of 10 ng/ml and incubated for 15 minutes at 37 C. Cell lysates were prepared and analyzed by Phospho STAT4 (Tyr693) Kit (Meso Scale Discovery) following manufacturer's protocol.
# (§2) For calculation of the inhibition rate, the relative pSTAT4 signal of each well=pSTAT4 signal of each well−the average pSTAT4 signal of baseline. The inhibition %=(the average pSTAT4 signal of IL-12 treatment wells−the relative of pSTAT4 signal in each compound containing well)/the average pSTAT4 signal of IL-12 treatment wells*100%
# (§3) The curve was plotted as the inhibition % (y-axis) vs. compounds concentration (x-axis) and was fitted with log(inhibitor) vs. normalized response—Variable slope by GraphPad Prism7.0. Control is BMS-986165:
# (§4) Similar to the method for IL-12 induced pSTAT4 in human PBMC described above, these assays were performed to check if test compounds have cross-activity to JAK1. JAK2 and JAK3 pathways in human PBMC. The procedure is as described with change of stimuli to 10 ng/ml of GM-CSF or 20 ng/ml of IL-2.
# [6] = Pharmacokinetic study in cynomolgus monkeys; format: in vivo; conditions: cynomolgus monkey, plasma, iv, I.V. (1 mg/kg)
# Experimental: The pharmacokinetics of test compounds were evaluated in male C57BL/6 mice, Sprague Dawley rats, Beagle dogs, and cynomolgus monkeys when administered via oral gavage and IV injection. The animals were fasted overnight before administration. Plasma samples were collected predose and at 0.5, 1, 3, 6, 9, 12, and 24 hours postdose. The samples were analyzed by LC/MS/MS and the concentration of test compound at each timepoint was determined by linear regression. Pharmacokinetic parameters were calculated from the plasma concentrations using Pheonix WinNonlin.
# [7] = system: GM-CSF-induced pSTAT5 in human PBMC; assay: GM-CSF-induced pSTAT5 in human PBMC; format: cell-based; conditions: GM-CSF 10 ng/ml
# Experimental: as §1, §2, §3, §4
# [8] = system: IL12-induced p-STAT4 in human PBMC; assay: IL-12 induced pSTAT4 in human PBMC; format: cell-based; conditions: Homo sapiens, PBMC, read-out: p-STAT4 IC50
# [9] = system: INFα induced pSTAT3 in human PBMC; assay: INFα induced pSTAT3 in human PBMC; format: cell-based; conditions: Homo sapiens, PBMC, read-out: p-STAT3 IC50
# Experimental: as §1, with “INFα” for “IL-12”, “5000 units/ml” for “10 ng/ml”, “STAT3 (Tyr705) cellular kit (Cisbio) or Phospho STAT5” for “STAT4”
# as §2, with “pSTAT” for “pSTAT4”, “well=pSTAT” for “well=pSTAT4”, “INFα” for “IL-12”
# The curve was plotted as the inhibition % (y-axis) vs. compounds concentration (x-axis) and was fitted with log(inhibitor) vs. normalized response—Variable slope by GraphPad Prism7.0.
# Sequence of TYK2 (JH2 domain) (P29597 589-875): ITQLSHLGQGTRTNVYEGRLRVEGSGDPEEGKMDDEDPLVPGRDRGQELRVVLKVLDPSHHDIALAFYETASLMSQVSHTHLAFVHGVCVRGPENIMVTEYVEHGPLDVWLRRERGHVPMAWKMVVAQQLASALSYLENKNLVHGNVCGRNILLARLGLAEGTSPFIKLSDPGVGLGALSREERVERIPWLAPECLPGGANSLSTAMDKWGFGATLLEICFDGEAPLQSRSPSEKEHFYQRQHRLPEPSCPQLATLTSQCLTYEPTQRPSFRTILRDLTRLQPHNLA
SMILES,Kd [1],IC50 [2],Kd [3],Kd [4],also measured
CC(C)(O)c1ccc(Nc2cc(Nc3ncccc3S(C)(=O)=O)c(C(=O)C3CC3)cn2)nc1F [Example 159],≤ 1 nM,< 100 nM,< 100 nM,1000 to 10000 nM,
[2H]C([2H])([2H])CC(=O)c1cnc(Nc2ccc(C(O)(C([2H])([2H])[2H])C([2H])([2H])[2H])c(F)n2)cc1Nc1ncccc1S(C)(=O)=O [Example 203],,< 100 nM,,,IC50 [5]: 100 to 1000 nM; AUC [6]: 595 ± 48 ng·h/mL; clearance [6]: 27.6 ± 1.9 mL/min/kg; half-life [6]: 57.1 ± 13.2 min; Cmax ([6]; read-out: C0 or Cmax (C0)): 787 ± 61 ng/mL; Vd ([6]; read-out: Vdss): 0.931 ± 0.01 L/kg; IC50 [7]: 1000 to 10000 nM
COc1c(-c2ncn(C)n2)ccnc1Nc1cc(NC(=O)C2CC2)ncc1C(=O)C1CC1 [Example 166],,< 100 nM,< 100 nM,1000 to 10000 nM,
"[2H]C([2H])([2H])NC(=O)c1nnc(N2CCN(C(C)C)C2=O)cc1Nc1nccc(-c2ncn(C)n2)c1OC [Example 147, 6-(3-isopropyl-2-oxo-imidazolidin-1-yl)-4-[[3-methoxy-4-(1-methyl-1,2,4-triazol-3-yl)-2-pyridyl]amino]-N-(trideuteriomethyl)pyridazine-3-carboxamide]",≤ 1 nM,< 100 nM,< 100 nM,> 10000 nM,
[2H]C([2H])([2H])NC(=O)c1nnc(NC(=O)N2CC(C)(C)C2)cc1Nc1cccc(-c2ncn(C)n2)c1OC [Example 38],≤ 1 nM,< 100 nM,< 100 nM,1000 to 10000 nM,
"[2H]C([2H])([2H])NC(=O)c1nnc(N2CCN(CC(F)F)C2=O)cc1Nc1cccc(-c2ncn(C)n2)c1OC [Example 8, 6-[3-(2,2-difluoroethyl)-2-oxo-imidazolidin-1-yl]-4-[2-methoxy-3-(1-methyl-1,2,4-triazol-3-yl)anilino]-N-(trideuteriomethyl)pyridazine-3-carboxamide; 2,2,2-trifluoroacetic acid]",≤ 1 nM,,,,IC50 [8]: < 100 nM; IC50 [9]: < 100 nM
